According to ChEMBL document CHEMBL1201862, “PubChem BioAssay data set” (2004):
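Test compounds were applied to cells in 96-well plates for 48 hours at 5 doses. Here, GI50 denotes the concentration required for 50% inhibition of growth.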 The source made the active and inactive calls. Cut-off read from the data, not from the text of the source: active = GI50 up to about 1.1 µM and inactive = higher.

Key:
Assay in all cases: growth of human tumour cells (NCI), 48 h
KM-20L2 = system: KM-20L2
SNB-78 = system: SNB-78
DMS-114 = system: DMS-114
XF498 = system: XF498
LXFL 529 = system: LXFL 529
DLD-1 = system: DLD-1
DMS-273 = system: DMS-273
RXF 631 = system: RXF 631
HOP-18 = system: HOP-18

Row | SMILES | GI50 (KM-20L2) | GI50 (SNB-78) | GI50 (DMS-114) | GI50 (XF498) | GI50 (LXFL 529) | GI50 (DLD-1) | GI50 (DMS-273) | GI50 (RXF 631) | GI50 (HOP-18)
1 | NC1=C(Br)C(=O)c2ncccc2C1=O | 1.86 µM (inactive) | 0.828 µM (active) | 0.16 µM (active) | 0.998 µM (active) | 0.321 µM (active) | 0.607 µM (active) | 0.352 µM (active) | 1.79 µM (inactive) | 
2 | C[N+](C)(C)Cc1c(CC#N)[nH]c2ccccc12 | > 100 µM (inactive) |  | > 100 µM (inactive) | > 100 µM (inactive) | > 100 µM (inactive) | > 100 µM (inactive) | > 100 µM (inactive) |  | 
3 | NC(=O)CCC(NC(=O)Cc1ccccc1)C(=O)O.NC(CCC(=O)NC(=O)Cc1ccccc1)C(=O)O (configuration not stated) | > 8130 µM (inactive) |  | > 8130 µM (inactive) |  | > 8130 µM (inactive) | > 8130 µM (inactive) |  |  | > 8130 µM (inactive)
4 | Cn1c2ccccc2n2c3nc4ccccc4nc3c(C#N)c12 |  |  | > 100 µM (inactive) | > 100 µM (inactive) | > 100 µM (inactive) | < 0.01 µM (active) | > 100 µM (inactive) |  | > 100 µM (inactive)
5 | COc1ccc2c3c(c(C(=O)c4ccccc4)oc13)CCC2 | > 100 µM (inactive) | > 100 µM (inactive) | > 100 µM (inactive) | > 100 µM (inactive) | > 100 µM (inactive) | > 100 µM (inactive) | > 100 µM (inactive) | > 100 µM (inactive) | > 100 µM (inactive)
6 | C/C(CC(=O)N(C(C)C)C(C)C)=N\NC(=O)c1ccncc1 | > 100 µM (inactive) | > 100 µM (inactive) |  | > 100 µM (inactive) | > 100 µM (inactive) | > 100 µM (inactive) | > 100 µM (inactive) | > 100 µM (inactive) | > 100 µM (inactive)
7 | Cn1c(C2CC(C)(C)c3c2c2ccccc2n3C)cc2ccccc21 (configuration not stated) | > 304 µM (inactive) |  | 138 µM (inactive) | 115 µM (inactive) | > 304 µM (inactive) | > 304 µM (inactive) | > 304 µM (inactive) |  | 
8 | CN(C)CCNC(=O)C1COc2cc(-c3cc(=O)c4ccccc4o3)ccc2O1 (configuration not stated) | 22 µM (inactive) | 24.7 µM (inactive) |  |  |  | 27.3 µM (inactive) | 18.5 µM (inactive) |  | 24.4 µM (inactive)
9 | O=Cc1cn(S(=O)(=O)c2ccccc2)c2ccccc12 | > 100 µM (inactive) | 41.3 µM (inactive) | 24.8 µM (inactive) | 46 µM (inactive) | 36.4 µM (inactive) | 27.2 µM (inactive) |  | 53.7 µM (inactive) | 32.4 µM (inactive)
10 | COc1ccc2c3c([nH]c2c1[N+](=O)[O-])C(C)N(Cc1ccccc1)CC3 (configuration not stated) | 3.78 µM (inactive) | 3.59 µM (inactive) | 3.39 µM (inactive) |  | 5.07 µM (inactive) | > 100 µM (inactive) | 1.04 µM (active) |  | 
11 | CC(=O)n1ccc2c(Cl)ncnc21 | > 100 µM (inactive) | > 100 µM (inactive) | > 100 µM (inactive) |  | > 100 µM (inactive) | > 100 µM (inactive) | > 100 µM (inactive) | > 100 µM (inactive) | 
12 | COc1ccc(/C(Cl)=C(\C=N/O)c2ccc(OC)c(OC)c2)cc1OC | > 100 µM (inactive) | 75.5 µM (inactive) | 30.8 µM (inactive) | > 100 µM (inactive) | > 100 µM (inactive) | > 100 µM (inactive) | > 100 µM (inactive) |  | > 100 µM (inactive)
